What all share (test): growth of human tumour cells (NCI), 48 h
In experiment [1] the test system is CAKI-1 renal.
The test system of experiment [2] is COLO 205 colon.
The subject of experiment [3] is MDA-MB-435.
Experiment [4] concerns NCI-H226 lung.
Experiment [5] deals with NCI-H23 lung.
For experiment [6], the system named is RPMI-8226 leukemia.
The subject of experiment [7] is SF-295 CNS.
In experiment [8] the test system is SW-620 colon.
The test system of experiment [9] is UACC-257 melanoma.
The test system of experiment [10] is HT29 colon.

The structures appear in SMILES notation. “And” between values parts separate entries of the source, which are not always exact repeats. Equal entries are not always repeated.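 Following 48 hours of exposure in 96-well plates, responses at five concentrations were used to interpolate endpoints linearly. Abbreviation: GI50, concentration required for 50% inhibition of growth. TGI: concentration producing complete growth inhibition.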

With `O=C(CCN1CCCC1)Nc1ccc2c(Nc3ccc(Br)cc3)c3ccccc3nc2c1`, the GI50 in [1] was 1.53 µM; in experiment [2] it was 1.85 µM; in experiment [3], 1.68 µM; in experiment [4], 1.39 µM; in experiment [5], 1.47 µM; in [6], 1.73 µM. In addition, the GI50 in [7] is 1.59 µM; in [8], 1.24 µM; in experiment [9], 1.89 µM. Further, the TGI stood at 2.87 µM in [1]; 4.33 µM in experiment [2]; 3.1 µM in experiment [3]; 3.02 µM in experiment [4]; 2.92 µM in [5]; 6.07 µM in [6]. Also, the TGI in experiment [7] amounted to 3.02 µM; in experiment [8] it was 2.64 µM; in experiment [9], 3.7 µM.

Take `COc1ccccc1/C=C1\CCC(CN2CCOCC2)C1=O` (stereo not drawn): the TGI in [1] amounted to 32.1 µM; in experiment [2], 14.2 µM; in experiment [10], 56.6 µM; in [3], 20.4 µM; in experiment [4], 31.8 µM; in experiment [5] it was 43.5 µM. Besides, the values for the TGI in experiment [7], in experiment [8] and in experiment [9] were 34.6 µM, 11.5 µM and 23.9 µM, respectively.

With `COc1ccccc1-c1ccc2c(N)c(C(=O)c3ccc4c(c3)OCO4)sc2n1`, the GI50 was 10.2 µM in experiment [1]; 10 µM in experiment [2]; 2.27 µM in experiment [3]; 7.35 µM in [4]; 12.9 µM in experiment [5]; 6.05 µM in experiment [6]. For the same compound, the results for the GI50 in experiment [7], in experiment [8] and in experiment [9] were 3.98 µM, 4.34 µM and 6.1 µM, respectively. Moreover, the TGI was found to be 25.9 µM in [1]; 31 µM in [2]; 9.54 µM in experiment [3]; 31.8 µM in experiment [4]; 52.8 µM in experiment [5]; 59.4 µM in experiment [6]. Moreover, the TGI is 18.5 µM in experiment [7], above 100 µM in experiment [8] and 22.7 µM in experiment [9].

As to `CCOP(=O)(OCC)C(NC(c1ccccc1)c1ccccc1)c1ccsc1` (stereo not drawn), the GI50 is 16 µM in experiment [1]; 21.2 µM in [3]; 13.7 µM in [4]; 19.9 µM in experiment [5]; 7.76 µM in [6]; 18.4 µM in experiment [7]. The GI50 in [8] is 29.2 µM. Besides, the TGI in experiment [1] is 33.2 µM; in experiment [3], 39.7 µM; in experiment [4], 28.8 µM; in experiment [5], 35.5 µM; in experiment [6], 22 µM; in [7] it was 36.9 µM. The compound further displayed a TGI in experiment [8] of 61.5 µM.

In the case of `CN1CCN(C(=O)[C@@]2(C)CC[C@]3(C)CC[C@]4(C)C(=CC[C@@H]5[C@@]6(C)CC[C@H](OC(=O)c7cccnc7)C(C)(C)[C@@H]6CC[C@]54C)[C@@H]3C2)CC1`, the GI50 in experiment [2] was 1.83 µM; in [10] it was 1.06 µM; in experiment [3] it was 1.7 µM; in experiment [4] it was 10.2 µM; in [5], 1.62 µM; in experiment [6] it was 1.87 µM. For the same compound, the figures for the GI50 in experiment [7], in experiment [8] and in experiment [9] were 1.62 µM, 1.79 µM and 1.83 µM, respectively. Also, the TGI turned out to be 3.94 µM in experiment [2]; 2.69 µM in [10]; 3.19 µM in experiment [3]; 24 µM in [4]; 3.39 µM in [5]; 5.81 µM in experiment [6]. The results for the TGI in experiment [7], in experiment [8] and in experiment [9] were 3.05 µM, 3.59 µM and 3.53 µM, respectively.

Turning to `CSc1nc(SC)c2c(C)c(Br)[nH]c2n1`, the TGI in experiment [1], in experiment [2], in experiment [10], in experiment [3], in experiment [4] and in experiment [5] was above 100 µM throughout. In addition, the TGI in experiment [6], in [7] and in experiment [8] was above 100 µM throughout.

As for `CC[C@H](C)[C@H](NC(=O)[C@H]1CCCCN1C)C(=O)N(C)[C@H](C[C@@H](OC(C)=O)c1nc(C(=O)NC23C4C5C2C2C3C4C52C(=O)OC)cs1)C(C)C` (stereo partly drawn), the GI50 in [1] was 0.016 µM; in experiment [2], 0.00303 µM and 0.0025 µM; in experiment [10] it was 0.00114 µM and 0.0025 µM; in [3], 0.000349 µM and < 0.0025 µM; in [4], 0.0256 µM and 0.0222 µM; in [5], 0.00414 µM and 0.0025 µM. In addition, the GI50 was 0.00197 µM and 0.0025 µM in [6]; 0.00253 µM and 0.0025 µM in [7]; 0.00149 µM and 0.0025 µM in experiment [8]. The TGI is 0.0715 µM and 0.0111 µM in [2]; 0.0612 µM and 0.0493 µM in experiment [10]; 0.00278 µM and < 0.0025 µM in experiment [3]; 1.15 µM in experiment [4]; above 25 µM in experiment [5]; 7 µM in [6]. Moreover, the TGI was 0.0944 µM and 0.282 µM in experiment [7]; above 25 µM in [8].

The record behind these values is PubChem BioAssay (NCI).
